Key:
diabetic rats = test: In Vivo Vascular Permeability Study in diabetic rats; parameters: species or system rat; conditions: treated diabetic rats; 0.1% of diet, seven weeks; Mean ± SD; eight rats per group
Protocol: As confirmation of the in vivo results obtained above, a second in vivo experiment was conducted. In this in vivo test system the compound of Example 7 was fed to diabetic rats at 0.1% of the rat's diet for seven weeks. After seven weeks the rats were killed and vascular permeability in a number of different organ systems was compared. In Table III, Column 1 discloses the organ system examined, while Columns 2, 3 and 4 disclose the vascular permeability in μg of plasma/gram wet weight/minute for control (non-diabetic rats), untreated (diabetic rats/untreated) and treated (diabetic rats/treated), respectively (eight rats per each group).

[1] = biological target: Protein Kinase C mediated procollagenase synthesis and secretion; test: In Vitro Inhibition of Procollagenase: PKC (PDBu) stimulated procollagenase synthesis and secretion in primary human dermal fibroblasts; type: cell-based; parameters: unit not given here; conditions: 2.0% FBS used to supplement DME; 10 nM PDBu, 72 hours
Text: Collagenase and stromelysin are matrix metalloendoproteases which are known to be synthesized and secreted by a number of cell types in response to Protein Kinase C (PKC) activation. Matrix metalloendoproteases are responsible for the degradation of extracellular matrix molecules in the basement membrane and play a role in cell invasiveness, tissue remodeling alterations in the microvasculature (increased capillary permeability and uncontrolled cell growth) and normal matrix turnover. Alterations in the microvasculature are hallmarks of diabetic complications such as kidney failure, blindness and neuropathy. Accordingly, the ability to modulate PKC driven pathways, such as the synthesis and secretion of the […] enzyme precursor, procollagenase, should provide pharmacological advantages in treating diabetic complications.
The compounds of the present invention were evaluated for their ability to antagonize Protein Kinase C mediated procollagenase synthesis and secretion according to the following methodology.
Stimulation of the enzyme Protein Kinase C with 4-β-phorbol-12,13-dibutyrate (PDBu) leads human fibroblasts and other cells of endodermal, mesodermal and ectodermal origin to synthesize and secrete the enzyme precursor procollagenase. […]
9. After washing, the plates were read. […]

CSc1ccc(NC(=O)NCc2cc(C(C)(C)C)c(O)c(C(C)(C)C)c2)cc1 [Example 6, N-[[3,5-Bis(1,1-dimethylethyl)-4-hydroxyphenyl]methyl]-N'-[4-(methylthio)phenyl]urea] was tested, and the “% Normalization of Diabetic State, Blood Flow” value (“% Normalization … Blood Flow” for short) (rat) was 35.48% and the “% Normalization of Diabetic State, Blood Vessel Permeability” value (rat) was 66.12%.

For COc1c(C(C)(C)C)cc(CNC(=O)Nc2ccc(SC)cc2)cc1C(C)(C)C [Example 7], the “vascular permeability, aorta” value (diabetic rats) was 109 ± 65 μg plasma/g wet weight/min, the “vascular permeability, brain” value (diabetic rats) was 26 ± 11 μg plasma/g wet weight/min and the “vascular permeability, heart” value (diabetic rats) was 547 ± 181 μg plasma/g wet weight/min. The “vascular permeability, kidney” value (diabetic rats) was 1208 ± 293 μg plasma/g wet weight/min, the “vascular permeability, muscle” value (diabetic rats) was 59 ± 13 μg plasma/g wet weight/min and the “vascular permeability, ocular anterior uvea” value (diabetic rats) was 373 ± 105 μg plasma/g wet weight/min. For the same compound, the “vascular permeability, ocular posterior uvea” value (diabetic rats) was 323 ± 91 μg plasma/g wet weight/min, the “vascular permeability, retina” value (diabetic rats) was 62 ± 18 μg plasma/g wet weight/min and the “vascular permeability, sciatic nerve” value (diabetic rats) was 59 ± 18 μg plasma/g wet weight/min.

CSc1ccccc1NC(=O)NCc1cc(C(C)(C)C)c(O)c(C(C)(C)C)c1 [Example 9, N-[[3,5-Bis(1,1-dimethylethyl)-4-hydroxyphenyl]methyl]-N'-[2-(methylthio)phenyl]urea] was tested, and the “% Normalization … Blood Flow” value (rat) was 23.29% and the “% Normalization of Diabetic State, Blood Vessel Permeability” value (rat) was 8.45%.

In the case of CC(C)(C)c1cc(CNC(=S)Nc2ccccc2)cc(C(C)(C)C)c1O [Example 10, N-[[3,5-Bis(1,1-dimethylethyl)-4-hydroxyphenyl]methyl]-N'-phenylthiourea], the “% Normalization … Blood Flow” value (rat) is reported as 17.56% and the “% Normalization of Diabetic State, Blood Vessel Permeability” value (rat) is reported as 1.99%.

In the case of CSc1cccc(NC(=O)NCc2cc(C(C)(C)C)c(O)c(C(C)(C)C)c2)c1 [Example 11, N-[[3,5-Bis(1,1-dimethylethyl)-4-hydroxyphenyl]methyl]-N'-[3-(methylthio)phenyl]urea], the “% Normalization … Blood Flow” value (rat) is reported as 21.50% and the “% Normalization of Diabetic State, Blood Vessel Permeability” value (rat) is reported as -30.34%.

In the case of “N-[[3-(methylthiophenyl)-4-hydroxy-5-(1,1-dimethylethyl)phenyl]methyl]-N'-[4-(methylthio)phenyl]urea [Example 13]”, the IC50 [1] is reported as 8.6.
